Measurements from patent US9314446B2, “Sustained releasing pharmaceutical composition” (priority 2013, dated 2016).

Experiment: In-vitro release of diclofenac (dialysis bag, PBS, absorbance 300 nm)
Assay type: physicochemical
Conditions: 1 mg/ml, PBS 37° C.
Method: In-vitro experiment on agent release of hydrogel is designed to simulate its in-vivo effect. The 500 μg/ml latanoprost-loaded solution were added to the transwell (100 μl/well) mounted on 24-well plates, and 1.5 ml PBS was added in each well and then incubated at 37° C. The 1.5 ml PBS was collected and another 1.5 ml PBS was then replenished at each time (Days 1, 7, 14 and 28). The amount of latanoprost was analyzed by a LC-MS/MS system equipped with an electrospray ionization source. The LC-MS/MS consisted of a Sciex API 3000 tandem mass spectrometer and Agilent 1100 series LC system. Separation of latanoprost was achieved by using a Phenomenex Luna C18 column (particle size 5 um, 50 mm×4.6 mm i.d.). The mobile phase consisted of latanoprost was (A) 0.1% (v/v) formic acid and (B) acetonitrile containing 0.1% formic acid (A:B=7:3, v/v) and delivered at 0.3 ml per minute. The mass spectrometer was operated in positive mode which used multiple reaction monitoring. The precursor to produce ion transition of m/z 374.2→195.2 was monitored. In another experiment, the dialysis bags with molecular weight cut-off of 1 kD were used to retain the diclofenac-loaded hydrogel and allow the released diclofenac to permeate into the release medium (PBS). Briefly, 800 μl diclofenac-loaded hydrogel (1 mg/ml) or diclofenac only (1 mg/ml) was added to a dialysis bag. The sample-loaded dialysis bag was immersed in 30 ml of PBS at 100 rpm and 37° C. At fixed time intervals, the release medium was collected and replaced with an equal amount of PBS. According to the absorption curve of diclofenac, the diclofenac content of the each sample was analyzed by Tecan's Infinite® M 1000 spectrophotometer at the wavelength of 300 nm. […] The percentage of cumulative release at 1, 7, 14 and 28 days were 1.34±0.33, 26.80±5.40, 45.03±2.55 and 67.72±4.25%, respectively. Additives in hydrogel affect its composition, structure and may also change its drug releasing characteristics. […] The percentage of cumulative release of 1 mg/ml diclofenac only group at 5, 18, 24, 48, 75 and 140 hours was 106.08±10.48, 99.34±6.57, 106.62±13.76, 102.28±7.40, 105.75±5.76 and 112.14±7.05%.

## O=C(O)Cc1ccccc1Nc1c(Cl)cccc1Cl [diclofenac]
5 hours
  cumulative release of diclofenac: 106.08±10.48%
18 hours
  cumulative release of diclofenac: 99.34±6.57%
24 hours
  cumulative release of diclofenac: 106.62±13.76%
48 hours
  cumulative release of diclofenac: 102.28±7.40%
75 hours
  cumulative release of diclofenac: 105.75±5.76%
140 hours
  cumulative release of diclofenac: 112.14±7.05%
